Settings: Liquid, Vibrating wire viscometry

F/C=C/C(F)(F)F [trans-1,3,3,3-tetrafluoropropene]
Settings	viscosity [mPa·s]
243.16 K, 61 kPa	0.3906
243.16 K, 1000 kPa	0.395
243.16 K, 3000 kPa	0.4028
243.16 K, 5000 kPa	0.4116
243.16 K, 10000 kPa	0.4321
243.16 K, 15000 kPa	0.4532
243.16 K, 20000 kPa	0.4742
243.16 K, 25000 kPa	0.4951
243.16 K, 30000 kPa	0.517
253.16 K, 97 kPa	0.3409
253.16 K, 1000 kPa	0.3462
253.16 K, 3000 kPa	0.3538
253.16 K, 5000 kPa	0.3613
253.16 K, 10000 kPa	0.381
253.16 K, 15000 kPa	0.3999
253.16 K, 20000 kPa	0.4192
253.16 K, 25000 kPa	0.4374
253.16 K, 30000 kPa	0.4554
263.16 K, 148 kPa	0.2942
263.16 K, 1000 kPa	0.3043
263.16 K, 3000 kPa	0.3119
263.16 K, 5000 kPa	0.3189
263.16 K, 10000 kPa	0.3358
263.16 K, 15000 kPa	0.3534
263.16 K, 20000 kPa	0.3707
263.16 K, 25000 kPa	0.3875
263.16 K, 30000 kPa	0.4047
273.15 K, 217 kPa	0.2572
273.15 K, 1000 kPa	0.2626
273.15 K, 3000 kPa	0.2702
273.15 K, 5000 kPa	0.2776
273.15 K, 10000 kPa	0.2949
273.15 K, 15000 kPa	0.3127
273.15 K, 20000 kPa	0.3284
273.15 K, 25000 kPa	0.3451
273.15 K, 30000 kPa	0.3616
283.14 K, 308 kPa	0.2271
283.14 K, 1000 kPa	0.2318
283.14 K, 3000 kPa	0.2383
283.14 K, 5000 kPa	0.2442
283.14 K, 10000 kPa	0.2602
283.14 K, 15000 kPa	0.2755
283.14 K, 20000 kPa	0.2908
283.14 K, 25000 kPa	0.3061
283.14 K, 30000 kPa	0.3203
293.15 K, 428 kPa	0.2016
293.15 K, 1000 kPa	0.2035
293.15 K, 3000 kPa	0.2097
293.15 K, 5000 kPa	0.216
293.15 K, 10000 kPa	0.2315
293.15 K, 15000 kPa	0.2459
293.15 K, 20000 kPa	0.2606
293.15 K, 25000 kPa	0.2741
293.15 K, 30000 kPa	0.2877
303.15 K, 579 kPa	0.179
303.15 K, 1000 kPa	0.1816
303.15 K, 3000 kPa	0.1875
303.15 K, 5000 kPa	0.1933
303.15 K, 10000 kPa	0.2085
303.15 K, 15000 kPa	0.2227
303.15 K, 20000 kPa	0.2364
303.15 K, 25000 kPa	0.2495
303.15 K, 30000 kPa	0.2625
313.14 K, 767 kPa	0.1587
313.14 K, 1000 kPa	0.1601
313.14 K, 3000 kPa	0.1663
313.14 K, 5000 kPa	0.1728
313.14 K, 10000 kPa	0.1873
313.14 K, 15000 kPa	0.2008
313.14 K, 20000 kPa	0.2151
313.14 K, 25000 kPa	0.2283
313.14 K, 30000 kPa	0.2401
323.16 K, 998 kPa	0.1405
323.16 K, 3000 kPa	0.1479
323.16 K, 5000 kPa	0.1539
323.16 K, 10000 kPa	0.1687
323.16 K, 15000 kPa	0.183
323.16 K, 20000 kPa	0.1968
323.16 K, 25000 kPa	0.2093
323.16 K, 30000 kPa	0.221
333.16 K, 1277 kPa	0.1239
333.16 K, 3000 kPa	0.1305
333.16 K, 5000 kPa	0.1373
333.16 K, 10000 kPa	0.1527
333.16 K, 15000 kPa	0.1671
333.16 K, 20000 kPa	0.1796
333.16 K, 25000 kPa	0.1914
333.16 K, 30000 kPa	0.2033
343.16 K, 1611 kPa	0.1085
343.16 K, 3000 kPa	0.115
343.16 K, 5000 kPa	0.1227
343.16 K, 10000 kPa	0.1383
343.16 K, 15000 kPa	0.1527
343.16 K, 20000 kPa	0.1657
343.16 K, 25000 kPa	0.1773
343.16 K, 30000 kPa	0.1888
353.16 K, 2008 kPa	0.0939
353.16 K, 3000 kPa	0.0993
353.16 K, 5000 kPa	0.1072
353.16 K, 10000 kPa	0.1241
353.16 K, 15000 kPa	0.139
353.16 K, 20000 kPa	0.1516
353.16 K, 25000 kPa	0.1638
353.16 K, 30000 kPa	0.1749
363.16 K, 2475 kPa	0.079
363.16 K, 3000 kPa	0.0833
363.16 K, 5000 kPa	0.0932
363.16 K, 10000 kPa	0.1125
363.16 K, 15000 kPa	0.1273
363.16 K, 20000 kPa	0.1401
363.16 K, 25000 kPa	0.1516
363.16 K, 30000 kPa	0.1622
373.17 K, 3026 kPa	0.0632
373.17 K, 5000 kPa	0.0809
373.17 K, 10000 kPa	0.1013
373.17 K, 15000 kPa	0.1155
373.17 K, 20000 kPa	0.1286
373.17 K, 25000 kPa	0.1403
373.17 K, 30000 kPa	0.1514

From the NIST ThermoML archive (doi:10.1016/j.jct.2013.03.013)
